US20120022142A1, “RNA Interference Mediated Inhibition of Signal Transducer and Activator of Transcription 1 (STAT1) Gene Expression Using Short Interfering Nucleic Acid (siNA)” (Merck Sharp & Dohme Corp., priority 2009, published 2012)
Like-named read-outs stand apart in the source and are kept apart here. [invAb] = inverted abasic unit; m = 2'-O-methyl; r = 2'-OH (RNA); f = 2'-fluoro

What was measured:
STAT3 mRNA = assay: Effect of STAT1 siRNAs on expression of STAT3 mRNA in A549 cells (quantitative RT-PCR); format: cell-based, human; conditions: 1 nM siRNA, normalized to GAPDH
Text: (§1) A series of probes and primers were used to detect the various mRNA transcripts of the genes of β-Actin (human cell line only), and of STAT1 and GAPDH in mouse and human cell lines. All Taqman probes and primers for the experiments here-in described were supplied as pre-validated sets by Applied Biosystems, Inc. (see Table 2).
The levels of expression of STAT3 were normalized to the level of GAPDH. There was no significant effect (p>0.05) of treatment with any of the lead STAT1 siRNAs on the expression human or mouse STAT3 mRNA at 1 nM (10 to 100 times the IC50s of the siRNAs).

STAT1 mRNA = assay: Efficacy (% KD) and potency (IC50) of STAT1 mRNA knockdown of siNA leads in A549 cells; format: cell-based, human; conditions: for Human (A549) avg % KD: STAT1 mRNA, 30 nM siNA, at least three experiments
Description: A549 cells were plated in 6-well plates at final counts of 70,000 cells/well in 2 ml of complete growth media (Ham's F12, Cellgro Cat# 10-080-CV+10% FBS). Transfection was performed using 2.5 uL of RNAiMax (Invitrogen Cat# 13778-150) per well. Final concentration of siNAs was 30, 3, 0.3, 0.03, 0.003, and 0.0003 nM done in duplicate. The siNAs were incubated for 24-72 hours. The duplicate samples were pooled to prepare protein lysates and RNA using the “PARIS” Protein and RNA Isolation System from Ambion, Cat# 1921. The total protein in the lysates was measured using a Bradford Dye Reagent (Bio-Rad, Cat# 500-0205).SDS-PAGE/Western Blotting was performed on the on the protein samples and RT-PCR on the RNA samples.
as §1
(§2) The assays were performed on an ABI 7900 instrument, according to the manufacturer's instructions.
The expression level of the gene of interest and % knock-down was calculated using Comparative Ct method: […]
All calculations of IC50s were performed using SigmaPlot 10.0 software. The data were analyzed using the sigmoidal dose-response (variable slope) equation for simple ligand binding. In all of the calculations of the % knock-down, the calculation was made relative to the normalized level of expression of the gene of interest in the samples treated with the non-targeting control (Ctrl siNA) unless otherwise indicated.
Certain siNAs were further analyzed for efficacy in human A549 cells and mouse NIH3T3 cells. Percent KD/reduction is represented as mean±S.D. IC50 is represented as mean±S.D. The date is summarized from at least three separate experiments and within each experiment, the data point is calculated from an n=2. The final concentration of siNA used was 30 nM.

STAT1 human mRNA = assay: Initial screen of siNAs: STAT1 mRNA knock-down in A549 cells (96-well transfection, Taqman RT-PCR); format: cell-based; conditions: 10 nM siNA, 24 hrs, normalized against GAPDH, average of 2 experiments
Description: A549 (human; ATCC cat# CCL-185): Cells were cultured at 37° C. in the presence of 5% CO2 and grown in Ham's F12K medium with 2 mM L-glutamine adjusted to contain 1.5 g/L sodium bicarbonate and supplemented with fetal bovine serum at a final concentration of 10% and 100 μg/mL of streptomycin and 100 U/mL penicillin.
Cells were plated in all wells of a tissue-culture treated, 96-well plate at a final count of 5000 cells/well in 100 μL of the appropriate culture media. The cells were cultured for 24 hours after plating at 37° C. in the presence of 5% CO2.
After 24 hours, complexes containing siNA and RNAiMax were created as follows: A solution of RNAiMax diluted 33-fold in OPTI-MEM was prepared. In parallel, solutions of the siNAs for testing were prepared to a final concentration of 120 nM in OPTI-MEM. After incubation of RNAiMax/OPTI-MEM solution at room temperature for 5 min, an equal volume of the siNA solution and the RNAiMax solution were added together for each of the siNAs.
This solution was incubated at room temperature for 20 minutes. After incubation, 20 uL of the solution was added to each of the relevant wells. The final concentration of siNA in each well was 10 nM and the final volume of RNAiMax in each well was 0.3 ul.
The time of incubation with the RNAiMax-siNA complexes was 24 hours and there was no change in media between transfection and harvesting, unless otherwise indicated.
RNA was extracted from a 96-well plate using the TaqMan® Gene Expression Cells-to-CT™ Kit (Cat# 4399002) with a modified protocol. Briefly, a 60 uL (1 plate) or 110 uL (2 plates) of the Lysis Solution with DNase I was dispensed into each well of the Lysis Buffer Plate (twin.tec full skirt plate). The lysis buffer and stop plates were stored at 4° C. until the cells were washed.
The culture medium was aspirated and discarded from the wells of the culture plate. 50 uL of chilled DPBS was added to each well, then aspirated and discarded. The lysis was performed automatically using a BioMek FX instrument and method. After the Biomek method was completed, the lysis plate was incubated for 2 min at room temperature. The lysis plate can be stored for 2 hours at 4° C., or at −20° C. or −80° C. for two months.
Each well of the reverse transcription plate required 10 uL of 2× reverse transcriptase Buffer, 1 uL of 20× reverse transcription enzyme and 2 uL of nuclease-free water. The reverse transcription master mix was prepared by mixing 2× reverse transcription buffer, 20× reverse transcription enzyme mix, and nuclease-free water. 13 uL of the reverse transcription master mix was dispensed into each well of the reverse transcription plate (semi-skirted). A separate reverse transcription plate was prepared for each cell plate. The plate was loaded onto a Biomek NX or Biomek FX Dual-96 and the Biomek method was run. The program is programmed to automatically added 7 uL of lysate from the cell lysis procedure described above into each well of the reverse transcription plate. The plate is sealed and spun on a centrifuge (1000 rpm for 30 seconds) to settle the contents to the bottom of the reverse transcription plate. The plate is placed in a thermocycler at 37° C. for 60 min, 95° C. for 5 min, and 4° C. until the plate is removed from the thermocycler. Upon removal, if not used immediately, the plate was frozen at −20° C.
as §1, §2
Within each experiment, the baseline was set in the exponential phase of the amplification curve, and based on the intersection point of the baselines with the amplification curve, a Ct value was assigned by the instrument. […]

[1] = A549 cells, Table 5, read-out: IC50 vs. STAT1 mRNA
[2] = STAT1 mRNA knockdown, mean ± S.D., read-out: Human (A549) IC50

Row | Substance | STAT3 % KD at 1 nM (STAT3 mRNA) [%] | IC50 (STAT1 mRNA; [1]) [nM] | IC50 (STAT1 mRNA; [2]) [nM] | Human (A549) avg % KD (STAT1 mRNA; mean ± S.D.) [%] | % KD Human (STAT1 human mRNA) [%]
1 | 25351-DC: STAT1 siNA duplex, human target site 2249; modified strands SEQ ID NO: 39 and 40 (chain 1 CCUACACGAAGAAAGAACUTT; chain 2 AGUUCUUUCUUCGUGUAGGUU; chain 1: DNA at AGT, 2'-fluoro at CU, [invAb] at 5' end, 3' end, backbone not given here; chain 2: sugars from the 5' end rrrfffffffffmfmfmmmmm, backbone not given here) | 8 | 0.025 ± 0.009 | 0.012 ± 0.002 | 91.7 ± 0.1 | 90
2 | 25367-DC: STAT1 siNA duplex, human target site 966; modified strands SEQ ID NO: 71 and 72 (chain 1 GCUUGACAAUAAGAGAAAGTT; chain 2 CUUUCUCUUAUUGUCAAGCUU; chain 1: DNA at AGT, 2'-fluoro at CU, [invAb] at 5' end, 3' end, backbone not given here; chain 2: sugars from the 5' end rrrffffffmffmffmmmfmm, backbone not given here) | 12 | 0.01 ± 0.0064 | 0.032 ± 0.014 | 88.6 ± 1.1 | 91
3 | 25368-DC: STAT1 siNA duplex, human target site 782; modified strands SEQ ID NO: 73 and 74 (chain 1 GUAAAGUCAGAAAUGUGAATT; chain 2 UUCACAUUUCUGACUUUACUU; chain 1: DNA at AGT, 2'-fluoro at CU, [invAb] at 5' end, 3' end, backbone not given here; chain 2: sugars from the 5' end rrrmfmfffffmmffffmfmm, backbone not given here) | −2 | 0.097 ± 0.018 | 0.01 ± 0.0064 | 89.1 ± 1.8 | 91
4 | 25369-DC: STAT1 siNA duplex, human target site 602; modified strands SEQ ID NO: 75 and 76 (chain 1 GGAAAAGCAAGCGUAAUCUTT; chain 2 AGAUUACGCUUGCUUUUCCUU; chain 1: DNA at AGT, 2'-fluoro at CU, [invAb] at 5' end, 3' end, backbone not given here; chain 2: sugars from the 5' end rrrffmfmfffmfffffffmm, backbone not given here) | −2 | 0.012 ± 0.002 | 0.097 ± 0.018 | 88.8 ± 3.1 | 92
5 | 25372-DC: STAT1 siNA duplex, human target site 968; modified strands SEQ ID NO: 81 and 82 (chain 1 UUGACAAUAAGAGAAAGGATT; chain 2 UCCUUUCUCUUAUUGUCAAUU; chain 1: DNA at AGT, 2'-fluoro at CU, [invAb] at 5' end, 3' end, backbone not given here; chain 2: sugars from the 5' end rrrffffffffmffmffmmmm, backbone not given here) | 3 | 0.032 ± 0.014 | 0.025 ± 0.009 | 86.0 ± 2.0 | 92
